Numbered stars: 1 amine (or outer) side, 2 acyl side, 3 side chain; on linkers, the order of the positions; unused ones are H or OH. Bridge positions count the residues as written; N and C are the ends. Square brackets hold non-standard residues; d marks the D form. Peptide text beside a SMILES is read from it. * marks the point of attachment. Trp(βS-Me,7-OMe) = COc1cccc2c([C@H](C)[C@H](N)C(=O)O)c[nH]c12; X5 = COc1cccc2[nH]cc([C@H](C)[C@H](N[*:1])C(=O)[*:2])c12; Phe(4-CH2COOH) = N[C@@H](Cc1ccc(CC(=O)O)cc1)C(=O)O; Trp(7-CN) = N#Cc1cccc2c(C[C@H](N)C(=O)O)c[nH]c12; Trp(7-Cl) = N[C@@H](Cc1c[nH]c2c(Cl)cccc12)C(=O)O; Phe(4-CONH2) = NC(=O)c1ccc(C[C@H](N)C(=O)O)cc1; Phe(4-COOH) = N[C@@H](Cc1ccc(C(=O)O)cc1)C(=O)O; Trp(7-aza) = N[C@@H](Cc1c[nH]c2ncccc12)C(=O)O; Phe(4-CH2NH2) = NCc1ccc(C[C@H](N)C(=O)O)cc1; dPro(4S-NH2) = N[C@@H]1CN[C@@H](C(=O)O)C1; Pip(5R-OH) = O=C(O)[C@@H]1CC[C@@H](O)CN1; αMeW = C[C@](N)(Cc1c[nH]c2ccccc12)C(=O)O; X1 = O=C([C@@H]1CC[C@H](N[*:1])C1)[*:2]; Gly(Nα-CH2CH2CONH2) = NC(=O)CCNCC(=O)O; Pip(4-aza) = O=C(O)[C@@H]1CNCCN1; 4Pal = N[C@@H](Cc1ccncc1)C(=O)O; NMeE = CN[C@@H](CCC(=O)O)C(=O)O; dHyp = O=C(O)[C@H]1C[C@H](O)CN1; Cit = NC(=O)NCCC[C@H](N)C(=O)O; aThr = C[C@H](O)[C@H](N)C(=O)O; Dap(Me) = CNC[C@H](N)C(=O)O; NMeS = CN[C@@H](CO)C(=O)O; αMeS = C[C@](N)(CO)C(=O)O; Carboxymethyl = O=C(O)C*; Nle = CCCC[C@H](N)C(=O)O; Sar = CNCC(=O)O
Key:
[1] = biological target: T1, human TNFR1 extracellular domain (ECD) protein (Homo sapiens, UniProt P19438); assay: SPR binding affinity to captured human TNFR1 ECD
T1 construct: HRV 3C protease cleavage site (C); 6His (C, cleaved yes); made in house; host or cells: Sf21 insect cells (baculovirus), secreted
T1 sequence (P19438 30-211): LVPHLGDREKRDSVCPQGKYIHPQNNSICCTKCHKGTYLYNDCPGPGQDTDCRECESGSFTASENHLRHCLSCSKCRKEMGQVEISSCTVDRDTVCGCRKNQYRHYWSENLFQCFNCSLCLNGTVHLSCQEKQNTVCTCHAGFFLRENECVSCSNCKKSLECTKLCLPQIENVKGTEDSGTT
Summary of the method: (§1)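 Biotinylated human TNFR1 or TNFR2 ECD (C-terminal Avi-tag, Sf21-expressed) captured on a regenerable streptavidin chip; peptide analytes flowed in 10 mM HEPES pH 7.4, 150 mM NaCl, 3 mM EDTA, 0.05% P20, 2% DMSO. kon and koff measured; affinity calculated from the rate constants.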

[2] = biological target: T2, human soluble TNFR1 (sTNFR1) (Homo sapiens, UniProt P19438); assay: Human sTNFR1-peptide displacement assay (LanthaScreen Eu TR-FRET binding assay)
T2 construct: made in house; host or cells: Sf21 (baculovirus)
T2 sequence (P19438 with tags, fused parts or gaps): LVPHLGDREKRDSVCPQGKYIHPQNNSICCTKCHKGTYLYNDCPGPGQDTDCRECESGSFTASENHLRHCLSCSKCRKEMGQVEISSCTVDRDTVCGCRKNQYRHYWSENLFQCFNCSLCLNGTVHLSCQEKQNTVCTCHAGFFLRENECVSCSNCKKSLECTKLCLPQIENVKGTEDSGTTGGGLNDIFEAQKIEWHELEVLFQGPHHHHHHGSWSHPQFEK
Summary of the method: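 Readout is the 665/615 nm TR-FRET ratio (Eu anti-His donor, streptavidin-Alexa647 acceptor), normalized to DMSO and saturating displacer, fit by Morrison-based five-parameter logistic for Kd^app. His-tagged sTNFR1 (1-211) prebound to 100 nM biotinylated peptide SEQ ID NO.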

human TNFR2 ECD protein = biological target: T3, human TNFR2 ECD protein (Homo sapiens, UniProt P20333); assay: SPR off-target binding (selectivity) to human TNFR2 ECD
T3 construct: HRV 3C protease cleavage site (C); 6His (C, cleaved yes); made in house; host or cells: Sf21 insect cells (baculovirus), secreted
T3 sequence (P20333 23-257): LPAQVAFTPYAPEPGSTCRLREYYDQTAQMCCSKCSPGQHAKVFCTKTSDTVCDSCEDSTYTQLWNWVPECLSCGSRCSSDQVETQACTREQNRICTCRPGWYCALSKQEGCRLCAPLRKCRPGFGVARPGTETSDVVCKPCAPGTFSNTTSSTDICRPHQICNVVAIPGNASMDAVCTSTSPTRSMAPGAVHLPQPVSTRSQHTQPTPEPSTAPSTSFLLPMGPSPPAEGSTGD
Summary of the method: as §1

Structure (SMILES) | Kd [1] | IC50 [2] | Kd (human TNFR2 ECD protein) | Kd [2]
CCCC[C@@H]1NC(=O)CSC[C@@H](C(N)=O)NC(=O)[C@](C)(Cc2c[nH]c3ccccc23)NC(=O)CN(C)C(=O)[C@H](Cc2ccc(O)cc2)NC(=O)[C@H](Cc2ccc(OCC(=O)O)cc2)NC(=O)[C@](C)(CO)NC(=O)[C@H](Cc2c[nH]c3c(Cl)cccc23)NC(=O)[C@H](Cc2ccncc2)NC(=O)[C@H](CC(N)=O)NC(=O)[C@H](CCC(=O)O)N(C)C(=O)[C@H](Cc2c[nH]c3ncccc23)NC(=O)[C@H](CO)NC(=O)[C@H](Cc2ccc(CN)cc2)NC1=O [SEQ ID NO. 283] ({CH2CO}-[Nle][Phe(4-CH2NH2)]S[Trp(7-aza)][NMeE]N[4Pal][Trp(7-Cl)][αMeS]Y(Carboxymethyl)Y[Sar][αMeW]C-NH2; thioether N-14) | 0.5 nM | 1.45 nM | > 1000 nM | –
CCCC[C@@H]1NC(=O)[C@@H]2CC[C@@H](C2)NC(=O)[C@H]([C@@H](C)c2c[nH]c3c(OC)cccc23)NC(=O)CN(C)C(=O)[C@H](Cc2ccc(O)cc2)NC(=O)[C@H](Cc2ccc(C(=O)O)cc2)NC(=O)[C@](C)(CO)NC(=O)[C@H](Cc2c[nH]c3c(Cl)cccc23)NC(=O)[C@H](Cc2ccncc2)NC(=O)[C@H](CC(N)=O)NC(=O)[C@H]2C[C@H](N)CN2C(=O)[C@H](Cc2c[nH]c3ccccc23)NC(=O)[C@@H]2CNCCN2C(=O)[C@H](Cc2ccncc2)NC1=O [SEQ ID NO. 161] (cyclo([4Pal][Trp(7-Cl)][αMeS][Phe(4-COOH)]Y[Sar][Trp(βS-Me,7-OMe)][X1][Nle][4Pal][Pip(4-aza)]W[dPro(4S-NH2)]N)) | 0.02 nM | – | > 1000 nM | 0.09 nM
CN1CC(=O)N[C@@H](Cc2c[nH]c3ccccc23)C(=O)N[C@H](C(N)=O)CSCC(=O)N[C@@H](CCCCN)C(=O)N[C@@H](Cc2ccc(O)cc2)C(=O)N[C@@H](CO)C(=O)N[C@@H](Cc2c[nH]c3ccccc23)C(=O)N2CCC[C@@H]2C(=O)N[C@@H](CCCNC(N)=O)C(=O)N[C@@H](Cc2ccncc2)C(=O)N[C@@H](Cc2c[nH]c3ccccc23)C(=O)N[C@@](C)(CO)C(=O)N[C@@H](Cc2ccc(C(=O)O)cc2)C(=O)N[C@@H](Cc2ccc(O)cc2)C1=O [SEQ ID NO. 256] ({CH2CO}-KYSW[dP][Cit][4Pal]W[αMeS][Phe(4-COOH)]Y[Sar]WC-NH2; thioether N-14) | 1.4 nM | 1.84 nM | > 1000 nM | –
CCCC[C@@H]1NC(=O)[C@@H]2CC[C@@H](C2)NC(=O)[C@H]([C@@H](C)c2c[nH]c3c(OC)cccc23)NC(=O)CN(C)C(=O)[C@H](Cc2ccc(C(N)=O)cc2)NC(=O)[C@H](Cc2ccc(C(N)=O)cc2)NC(=O)[C@](C)(CO)NC(=O)[C@H](Cc2c[nH]c3c(C#N)cccc23)NC(=O)[C@H](Cc2ccc(C(=O)O)cc2)NC(=O)[C@H]([C@H](C)O)NC(=O)[C@H]2C[C@H](O)CN2C(=O)[C@H](Cc2c[nH]c3ncccc23)NC(=O)[C@@H]2CC[C@@H](O)CN2C(=O)[C@H](Cc2ccncc2)NC1=O [SEQ ID NO. 122] (cyclo([4Pal][Pip(5R-OH)][Trp(7-aza)][dHyp][aThr][Phe(4-COOH)][Trp(7-CN)][αMeS][Phe(4-CONH2)][Phe(4-CONH2)][Sar][Trp(βS-Me,7-OMe)][X1][Nle])) | 0.04 nM | – | > 1000 nM | 0.08 nM
CCCC[C@@H]1NC(=O)CSC[C@@H](C(N)=O)NC(=O)[C@H]([C@@H](C)c2c[nH]c3cccc(OC)c23)NC(=O)CN(C)C(=O)[C@H](Cc2ccc(O)cc2)NC(=O)[C@H](Cc2ccc(C(N)=O)cc2)NC(=O)[C@](C)(CO)NC(=O)[C@H](Cc2c[nH]c3c(Cl)cccc23)NC(=O)[C@H](Cc2ccc(C(=O)O)cc2)NC(=O)[C@H](CC(N)=O)NC(=O)[C@H](CCC(=O)O)N(C)C(=O)[C@H](Cc2c[nH]c3ncccc23)NC(=O)[C@H](CO)N(C)C(=O)[C@H](Cc2ccncc2)NC1=O [SEQ ID NO. 209] ({CH2CO}-[Nle][4Pal][NMeS][Trp(7-aza)][NMeE]N[Phe(4-COOH)][Trp(7-Cl)][αMeS][Phe(4-CONH2)]Y[Sar][X5]C-NH2; thioether N-14) | 0.4 nM | 0.6 nM | > 1000 nM | 0.67 nM
CCCC[C@@H]1NC(=O)CSC[C@@H](C(N)=O)NC(=O)[C@](C)(Cc2c[nH]c3ccccc23)NC(=O)CN(C)C(=O)[C@H](Cc2ccc(O)cc2)NC(=O)[C@H](Cc2ccc(CC(=O)O)cc2)NC(=O)[C@](C)(CO)NC(=O)[C@H](Cc2c[nH]c3c(Cl)cccc23)NC(=O)[C@H](Cc2ccncc2)NC(=O)[C@H](CC(N)=O)NC(=O)[C@H](CCC(=O)O)N(C)C(=O)[C@H](Cc2c[nH]c3ncccc23)NC(=O)[C@H](CO)NC(=O)[C@H](Cc2ccc(CN)cc2)NC1=O [SEQ ID NO. 224] ({CH2CO}-[Nle][Phe(4-CH2NH2)]S[Trp(7-aza)][NMeE]N[4Pal][Trp(7-Cl)][αMeS][Phe(4-CH2COOH)]Y[Sar][αMeW]C-NH2; thioether N-14) | 0.4 nM | 1.7 nM | > 1000 nM | –
CCCC[C@@H]1NC(=O)[C@@H]2CC[C@@H](C2)NC(=O)[C@H]([C@@H](C)c2c[nH]c3c(OC)cccc23)NC(=O)CN(C)C(=O)[C@H](Cc2ccc(C(=O)O)cc2)NC(=O)[C@H](Cc2ccc(C(N)=O)cc2)NC(=O)[C@](C)(CO)NC(=O)[C@H](Cc2c[nH]c3c(C#N)cccc23)NC(=O)[C@H](Cc2ccc(C(=O)O)cc2)NC(=O)[C@H](CC(N)=O)NC(=O)CN(CCC(N)=O)C(=O)[C@H](Cc2c[nH]c3ccccc23)NC(=O)[C@@H]2CC[C@@H](O)CN2C(=O)[C@H](Cc2ccncc2)NC1=O [SEQ ID NO. 130] (cyclo([4Pal][Pip(5R-OH)]W[Gly(Nα-CH2CH2CONH2)]N[Phe(4-COOH)][Trp(7-CN)][αMeS][Phe(4-CONH2)][Phe(4-COOH)][Sar][Trp(βS-Me,7-OMe)][X1][Nle])) | 0.06 nM | – | > 1000 nM | 0.01 nM
CCCC[C@@H]1NC(=O)CSC[C@@H](C(N)=O)NC(=O)[C@](C)(Cc2c[nH]c3ccccc23)NC(=O)CN(C)C(=O)[C@H](Cc2ccc(O)cc2)NC(=O)[C@H](Cc2ccc(C(=O)O)cc2)NC(=O)[C@](C)(CO)NC(=O)[C@H](Cc2c[nH]c3c(Cl)cccc23)NC(=O)[C@H](Cc2ccncc2)NC(=O)[C@H](CC(N)=O)NC(=O)[C@H](CCC(=O)O)N(C)C(=O)[C@H](Cc2c[nH]c3ncccc23)NC(=O)[C@H](CNC)NC(=O)[C@H](Cc2ccncc2)NC1=O [SEQ ID NO. 235] ({CH2CO}-[Nle][4Pal][Dap(Me)][Trp(7-aza)][NMeE]N[4Pal][Trp(7-Cl)][αMeS][Phe(4-COOH)]Y[Sar][αMeW]C-NH2; thioether N-14) | 1.2 nM | 1.92 nM | > 1000 nM | –
CCCC[C@@H]1NC(=O)[C@@H]2CC[C@@H](C2)NC(=O)[C@H]([C@@H](C)c2c[nH]c3c(OC)cccc23)NC(=O)CN(C)C(=O)[C@H](Cc2ccc(C(N)=O)cc2)NC(=O)[C@H](Cc2ccc(C(N)=O)cc2)NC(=O)[C@](C)(CO)NC(=O)[C@H](Cc2c[nH]c3c(Cl)cccc23)NC(=O)[C@H](Cc2ccncc2)NC(=O)[C@H](CC(N)=O)NC(=O)[C@H](CCC(=O)O)N(C)C(=O)[C@H](Cc2c[nH]c3ccccc23)NC(=O)[C@@H]2CC[C@@H](O)CN2C(=O)[C@H](Cc2ccncc2)NC1=O [SEQ ID NO. 229] (cyclo([4Pal][Trp(7-Cl)][αMeS][Phe(4-CONH2)][Phe(4-CONH2)][Sar][Trp(βS-Me,7-OMe)][X1][Nle][4Pal][Pip(5R-OH)]W[NMeE]N)) | 0.14 nM | – | > 1000 nM | 0.1 nM
CCCC[C@@H]1NC(=O)[C@@H]2CC[C@@H](C2)NC(=O)[C@H]([C@@H](C)c2c[nH]c3c(OC)cccc23)NC(=O)CN(C)C(=O)[C@H](Cc2ccc(OC)cc2)NC(=O)[C@H](Cc2ccc(C(=O)O)cc2)NC(=O)[C@](C)(CO)NC(=O)[C@H](Cc2c[nH]c3c(Cl)cccc23)NC(=O)[C@H](Cc2ccc(C(N)=O)cc2)NC(=O)[C@H](CCC(N)=O)NC(=O)[C@H](CCC(=O)O)N(C)C(=O)[C@H](Cc2c[nH]c3ccccc23)NC(=O)[C@@H]2CNCCN2C(=O)[C@H](Cc2ccncc2)NC1=O [SEQ ID NO. 240] (cyclo([4Pal][Pip(4-aza)]W[NMeE]Q[Phe(4-CONH2)][Trp(7-Cl)][αMeS][Phe(4-COOH)]Y(Me)[Sar][Trp(βS-Me,7-OMe)][X1][Nle])) | 0.09 nM | – | > 1000 nM | 0.23 nM
